“Also recorded” adds a separate entry of the source. Values belong to the molecule of their own block, whether it stands above or below them.
Experiments:
[1] = Quantitative T1-mapping MRI of glymphatic transport of intrathecally (cisterna magna) injected Gd-chelate into the brain, transcranial ultrasound vs sham; type: in vivo, rat; parameters: mean gadolinium-enhanced volume: unit not given here
Method: (§1) Animals. The Institutional Animal Care and Use Committees of Stanford University approved all animal experiments. Tests were performed in 42 male Long-Evans rats with bodyweight 300-350 gm (Charles River Laboratories, Wilmington, Mass., USA). Animals were randomly assigned to one of two groups: (1) no treatment (Sham), and (2) treatment (Ultrasound). Ultrasound (0.25 MI in situ, 7.7% duty cycle for 10 min) or sham was applied transcranially throughout the brain (FIG. 1A). Before each procedure, the fur on the neck was shaved and a cisterna magna injection of a gadolinium (Gd) chelate (Multihance, Bracco Diagnostics, NJ, USA) was performed while the animal was anesthetized under isoflurane. The body temperature, cardiac and respiratory rates, and O2 saturation were monitored throughout the experiment and the isoflurane level was titrated to keep these parameters constant; environmental heating was used to help maintain body temperature. Localizer, FLASH-T1-3D, T1-mapping, and T2*-weighted MR images were taken to visualize glymphatic transport across the brain, to quantify Gd-chelate kinetic parameters, and to evaluate for parenchymal damage. In separate cohorts, either of two different sized optical tracers, a small molecule (IR800CW Carboxylate, LICOR, Lincoln, Nebr., USA; ˜1 kDa) or a large molecule (Panitumumab-IRDye800: ˜150 kDa, 5 nM, produced under GMP at the Leidos Biomedical Research Center, Frederick, Md., USA) (39) were co-delivered with the Gd-chelate to model the delivery of similar-sized therapeutic agents.
Intrathecal Cisterna Magna Injection For anesthesia, the animals were induced with 5% isoflurane in oxygen using an induction chamber and then switched to a maintenance dose of 2%. The animal was positioned in a stereotaxic frame (Stoelting, Wood Dale, Ill., USA), immobilized with ear bars, and then the head flexed to 45 degrees. A 27-gauge catheter (Butterfly Needle, SAI Infusion Technology, Lake Villa, Ill., USA) was inserted in the cisterna magna to inject up to 80 μl of tracers (Gd-chelate: MultiHance, gadobenate dimeglumine; Bracco Diagnostics Inc, NJ, USA; 0.21 ml/kg) slowly over 30 seconds. To model the delivery of similar-sized therapeutic agents, two different sized molecules, free dye (IRDye800CW Carboxylate, LICOR, Lincoln, Nebr., USA; ˜1 kDa; 36 nmol/kg) and IR dye-conjugated antibody (Panitumumab-IRDye800: ˜150 kDa; 0.133 mg/kg) were co-delivered with the Gd-chelate. The respiratory rate (45-50 breaths per minute), and normal body temperature (36.5-37.5° C.) were maintained throughout the experiment through titration of isoflurane dose and with environmental heating.
Magnetic Resonance Imaging Protocol. Magnetic Resonance Imaging (MRI) (an actively-shielded Bruker 7T horizontal bore scanner (Bruker Corp, Billerica Mass.), with International Electric Co. (IECO) gradient drivers, a 120 mm ID shielded gradient insert (600 mT/m, 1000 T/m/s), AVANCE III electronics; 8-channel multi-coil RF and multinuclear capabilities and volume RF coils; and the supporting Paravision 6.0.1 platform) was used to visualize glymphatic transport of Gd-chelate into the brain and to make quantitative T1-maps. The facility provides isoflurane anesthesia in medical-grade oxygen, and physiological monitoring of the subject including ECG, pulse oximetry, respiration, and temperature feedback for core body temperature maintenance by warm airflow over the animal. Following cisterna magna contrast agent injection, an MRI compatible animal FUS system (Image Guided Therapy—IGT, Pessac, France) was used in all experiments. Animals were placed in a prone position in a plastic stereotactic frame that has a single channel radiofrequency transmit-receive head coil (IGT) which is coupled to the FUS system. Animals were immobilized in the frame with ear bars and a bite bar. Noninvasive, MRI-compatible monitors for the respiratory rate and body temperature were used during the imaging session. […]

[2] = Near-infrared fluorescence imaging of brain slices after intrathecal co-delivery of optical tracers, transcranial ultrasound vs sham; type: in vivo, rat; conditions: about 2 hours after intrathecal delivery, 10 min ultrasound
Method: as §1, with “In separate cohorts, either of two different sized optical tracers, a small molecule (IR800CW Carboxylate, LICOR, Lincoln, Nebr., USA; ˜1 kDa) or a large molecule (Panitumumab-IRDye800: ˜150 kDa, 5 nM, produced under GMP at the Leidos Biomedical Research Center, Frederick, Md., USA) (39) were co-delivered with the Gd-chelate to model the delivery of similar-sized therapeutic agents.” left out
Fluorescence Imaging. […] Tissue sections were thaw-mounted on microscope glass slides (Fisher, Pittsburgh, Pa.), fixed the tissue-slides using 4% paraformaldehyde, and applied DAPI for fluorescence imaging. […]

- time at which perivascular influx of CSF into the brain is initially observed ([1]; 3D T1w MRI, after intrathecal administration): 12 min
- brain volume containing a resolvable amount of contrast agent, ultrasound versus sham ([1]; T1-mapping MRI over time): significantly larger volume of brain
- time by which cleared from the CSF-ISF spaces ([1]; T1w MRI after cisternal injection): ≤ 3 h
- mean gadolinium-enhanced volume ([1]; Ultrasound cohort (0.25 MI, 10 min, applied at 23 min), 12 min baseline): 0.18±0.07
- mean gadolinium-enhanced volume ([1]; Ultrasound cohort, 35 min): 0.43±0.16
- mean gadolinium-enhanced volume ([1]; Ultrasound cohort, 70 min): 0.44±0.17
- mean gadolinium-enhanced volume ([1]; Ultrasound cohort, 105 min): 0.45±0.25
- mean gadolinium-enhanced volume ([1]; Ultrasound cohort, 180 min): 0.18±0.24
- mean gadolinium-enhanced volume ([1]; Ultrasound cohort, 240 min): 0.17±0.24
- increase of peak parenchymal uptake with ultrasound ([1]; low-intensity transcranial scanning ultrasound vs sham): 72-101%
- mean gadolinium-enhanced volume ([1]; sham cohort, 12 min after intrathecal injection, mean ± S.D.): 0.17±0.084
- mean gadolinium-enhanced volume ([1]; sham cohort, 35 min): 0.25±0.15
- mean gadolinium-enhanced volume ([1]; sham cohort, 70 min): 0.22±0.1
- mean gadolinium-enhanced volume ([1]; sham cohort, 105 min): 0.23±0.11
- mean gadolinium-enhanced volume ([1]; sham cohort, 180 min): 0.11±0.12
- mean gadolinium-enhanced volume ([1]; sham cohort, 240 min): 0.06±0.04
- clearance timeline from the brain ([1]; with ultrasound): 3 h
- residual tracer in the brain ([1]; with ultrasound, 3 h post-injection): increased residual tracer in the brain
- time of peak parenchymal uptake ([1]; with ultrasound, from injection): 105 min
- time of peak brain concentration ([1]; without further intervention (no ultrasound), after intrathecal injection): approximately 35 min
- time to clear from the brain interstitial compartment ([1]; without further intervention, from injection): ≤ 3 h
Molecule: CNC[C@H](O)[C@@H](O)[C@H](O)[C@H](O)CO.CNC[C@H](O)[C@@H](O)[C@H](O)[C@H](O)CO.O=C([O-])CN(CCN(CC(=O)[O-])CC(=O)O)CCN(CC(=O)O)C(COCc1ccccc1)C(=O)[O-].[Gd+3] (stereo not drawn) [Gd-chelate, gadobenate dimeglumine]
- Gd-chelate deposition in the brain ([1]; T1w MRI, 24-72 h after ultrasound intervention): no any evidence of Gd deposition; also recorded: no prolonged Gd-chelate deposition

Molecule: Panitumumab-IRDye800: therapeutic antibody panitumumab (~150 kDa, EGFR-targeted) conjugated with the IR dye; large optical tracer
- brain penetration (near-infrared dye-enhanced area), ultrasound compared to sham [2]: significantly greater degree with ultrasound
- brain penetration (near-infrared dye-enhanced area), ultrasound compared to sham ([2]; listed as panitumumab): penetrated to a greater degree into the brain
